From EP2402357B1, “Analogs of 2',3'-dideoxy-3'-fluorothymidine 5'-monophosphate (FLTMP) for use in the treatment of infections caused by human HIV-1 strains” (priority 2010, dated 2012)
pEC50: −log10 of the molar value. Structures can show the parent of a compound that is named as a salt.

Experiments:
Test in all cases: Antiviral activity in deCIPhR cellular system (replicative phenotyping, β-galactosidase indicator cell line)
Type in all cases: cell-based
Conditions in all cases: Human immunodeficiency virus 1
HIV-1 mutant GQ (MDR) = tested on: HIV-1 mutant GQ (MDR)
Excerpt: (§1) Fully infectious virus HIV-1 was produced from cloned proviral DNA reference coding either for wild-type HIV-1 or from drug-resistant virus following transfection of proviral DNA into recipient mammalian cells. Subsequent to viral protein expression and particle formation, culture supernatant was harvested and used to infect an indicator cell line. This latter cell line expresses all necessary receptors and co-receptors for HIV infection as well as the bacterial gene LacZ coding for β-galactosidase under the control of the HIV-1 long terminal repeat. In this system, amount of β-galactosidase is directly proportional to the extent of viral replication. Activity of β-galactosidase is assayed in presence of a colorless substrate which upon enzymatic conversion yields a yellow product absorbing at 405 nm. Next, variation in colorimetric readout in presence of test compounds was translated in percent viral inhibition following normalization according to absorbance values of positive (presence of anti-HIV drug) and negative (untreated) control wells included in each 96 well-plate. For determining effective concentration 50 % (EC50), test compounds were assayed across a range of concentrations. Percent inhibition data in function of drug concentration were processed by a statistical curve fitting software yielding a modeled curve from which EC50 was extrapolated.

HIV-1 wild type pNL4-3 = tested on: HIV-1 wild type pNL4-3
Excerpt: as §1

HIV-1 mutant K103N = tested on: HIV-1 mutant K103N
Excerpt: as §1

HIV-1 mutant K65R = tested on: HIV-1 mutant K65R
Excerpt: as §1

HIV-1 mutant M184V = tested on: HIV-1 mutant M184V
Excerpt: as §1

HIV-1 mutant M4 = tested on: HIV-1 mutant M4
Excerpt: as §1

SMILES	pEC50 (HIV-1 mutant GQ (MDR))	EC90 (HIV-1 mutant GQ (MDR)) [nM]	pEC50 (HIV-1 wild type pNL4-3)	EC90 (HIV-1 wild type pNL4-3) [nM]	pEC50 (HIV-1 mutant K103N)	EC90 (HIV-1 mutant K103N) [nM]	pEC50 (HIV-1 mutant K65R)	EC90 (HIV-1 mutant K65R) [nM]	pEC50 (HIV-1 mutant M184V)	EC90 (HIV-1 mutant M184V) [nM]	pEC50 (HIV-1 mutant M4)	EC90 (HIV-1 mutant M4) [nM]
Cc1cn([C@H]2C[C@H](F)[C@@H](COP(=O)(O)O)O2)c(=S)[nH]c1=O [Example 2-SFLTMP, 1-(2-deoxy-3-fluoro-β-D-ribofuranosyl)-2-thiothymine 5'-monophosphate disodium salt]	5.55	4530	6.65	2580	6.94	978	6.30	4340	6.84	3260	6.41	3680
Cc1cn([C@H]2C[C@H](F)[C@@H](COP(=O)(O)O)O2)c(=O)[nH]c1=S [Example 4-SFLTMP, 1-(2-deoxy-3-fiuoro-β-D-ribofuranosyl)-4-thiothymine 5'-monophosphate disodium salt]	7.32	1800	7.62	166	7.96	50	7.02	338	7.37	425	7.51	381
Cc1cn([C@H]2C[C@H](F)[C@@H](CO)O2)c(=O)[nH]c1=O [FLT, 2',3'-Dideoxy-3'-fluorothymidine]	6.88	1300	7.68	210	7.74	71	7.49	96	7.57	119	7.80	118
